Data on seven molecules can be found in US20150218252A1, “SELF-ASSEMBLING PEPTIDES, PEPTIDE NANOSTRUCTURES AND USES THEREOF” (President and Fellows of Harvard College, priority 2012, published 2015).

Residues, ends and D or L forms follow the SMILES beside them.

Series [1] is described as follows: Stability of self-assembled peptide nanoparticles determined by DLS. Format: physicochemical. The following applies: for particle stability compared to FF and YF constructs: function of residue at X4, data not shown; for time particles stable before disaggregation: formed in cold deionized water; for time particles stable before disaggregation / particle stability: DLS. The protocol: (§1) The self-assembled peptide nanoparticles formed (e.g., from FF or YF peptides) in cold water (cold deionized water) as shown in Example 2 were stable for about 2 hours before they eventually disaggregated as determined by DLS. To increase the stability of FF and YF, a solvent injection protocol was used. That is, the peptide constructs were dissolved in an organic solvent (e.g., but not limited to, DMSO, acetone, ethanol, dioxane, acetonitrile, methanol, and THF) at ˜150 mg/ml and a fixed volume was then injected in cold saline solution (e.g., but not limited to, ˜0.9% NaCl) while stirring. Different concentrations and/or types of salts could be used to prepare the saline solution, depending on the solubility of the peptide constructs in the respective solution. In some embodiments, any buffer solution such as PBS, acetate, succinate and citrate buffer could be used instead. The resulting particles size varied with peptide concentration from about 5 mg/ml to about 50 mg/ml with low polydispersities (FIGS. 4A-4B). By addition of 0.9% NaCl in the cold solution, the stability of the particles was increased from about 2 h to about 24 h as determined by DLS. […] Thus, in one embodiment, the average size of the nanoparticles can be controlled by simply varying the temperature of the formulation buffere, e.g., at room temperature or under cold ˜2-4° C. conditions.
In some embodiments, the nanoparticles can be formed by a process, which comprises dissolving an isolated peptide described herein (e.g., example peptides shown in Tables 1-2) in organic solvents such as DMSO at high concentration (e.g., about 400 mg/mL) and injecting a fixed volume of the dissolved peptides in cold saline (e.g., ˜0.9% sodium chloride solution) while stirring. The cold precipitation method (e.g., using a cold saline medium) can more efficiently induce peptide self-assembly. In some embodiments, the cold precipitation method (e.g., using a cold saline medium) can improve particle stability, e.g., from about 2 hours (e.g., when particles were formed by simply mixing the isolated peptides at a specified temperature) to about 24 hours (where the particles were formed by cold saline precipitation method described herein).
To further improve stability of nanoparticles, stability of the resulting particles was investigated as a function of amino acid residue at the X4 position as indicated in Table 1 (entry 3-7) and X4 position as indicated in FIG. 1. […] For example, as shown in FIG. 4E and FIG. 5, the particles self-assembled from the YF peptides or Y peptides can be stable for at least about 120 hours or longer when formed in the formulation buffer (e.g., ˜0.9% NaCl), e.g., using the cold precipitation method described earlier. Without wishing to be bound by theory, this increase in stability is likely, in part, due to the tyrosine residue at position X4 that can be stabilized by the free amine at the N-terminus.

Series [2] can be described thus: Dynamic light scattering (DLS) size distribution of self-assembled peptide nanoparticles. Format: physicochemical. The following applies: for average hydrodynamic diameter / polydispersity index (PDI): DLS.
Source text: Self-assembling peptides (e.g., FF and YF peptides as shown in Table 1 and FIG. 1, each with a sequence of 10 amino acids in length) were each prepared by FMOC solid-phase peptide synthesis, for example, on Wang resin and cleaved from the resin with a solution mixture of trifluoroacetic acid/triisopropylsilane/water in a volume ratio of […]. The synthesized peptides were then purified by reversed phase HPLC. These peptide constructs were selected to represent bulky aliphatic and aromatic amino acid residues. […] The peptide concentration of the resulting mixture was about 2.5 mg/mL to about 100 mg/mL. The mixture was stirred at about 200 rpm to about 300 rpm for about 5 mins. The stirring speed can be varied to control size homogeneity. […] Accordingly, the size of the nanostructures can be, at least in part, controlled by the sequence of the amino acid construct.
as §1, with “That is, the peptide constructs were dissolved in an organic solvent (e.g., but not limited to, DMSO, acetone, ethanol, dioxane, acetonitrile, methanol, and THF) at ˜150 mg/ml and a fixed volume was then injected in cold saline solution (e.g., but not limited to, ˜0.9% NaCl) while stirring.” left out
Each peptide was dissolved in distilled deionized water at varying concentrations, which can, in part, control particle size. Mixtures of ˜80 mg/mL, ˜50 mg/mL, and ˜20 mg/mL peptide concentration were each stirred vigorously (e.g., using a magnetic stirrer) for about 10 mins at room temperature or at about 4° C. Nanoparticles were measured, e.g., by dynamic light scattering (DLS), to be in the range from about 50 nm to about 2 μm.
A zeta particle size analyzer (Malvern instruments, UK) operating with a HeNe laser, and a 173° back scattering detector was used to determine the size distribution of the nanoparticles. Samples were prepared at 80 mg/mL, 50 mg/mL, and 20 mg/mL in water and measured directly by dynamic light scattering measurement (n=3 per condition). Malvern instrument software or Microsoft Excel was used to analyze the acquired data.

Series [3] is described as follows: Encapsulation of hydrophobic (Nile Red) and hydrophilic (Calcein) dyes in peptide nanoparticles. Particulars: YF ~25 mg/mL in cold saline. Format: physicochemical. The protocol: Nile Red (NR) a hydrophobic dye and Calcein, hydrophilic dyes were used as model agents for hydrophobic and hydrophilic drugs or molecules, respectively. For example, YF was dissolved in DMSO to make a stock concentration of about 380 mg/mL. Stock solutions of Nile red and Calcein dyes were each prepared in DMSO at about 3 mg/ml and about 20 mg/mL, respectively. A mixture of YF (about 380 mg/ml) and at least one model agent (e.g., Nile red (0.28 mg/mL) and/or Calcein (1.8 mg/mL)) was added to a formulation buffer, e.g., cold saline (e.g., about 0.3 mL) and mixed, e.g., by manual pipetting. The final ratios of peptide to dyes were ˜25 mg/ml to ˜0.02 mg/ml (YF:NR) and ˜25 mg/mL to ˜0.124 mg/mL (YF:calcein). In some embodiments, about 20-30% of each dye was encapsulated within self-assembling YF nanoparticles.
The peptide nanostructures (e.g., peptide nanoparticles (NP)) were visualized by fluorescence microscopy using the hydrophobic dye, Nile Red, which has a strong emission at […] when present in a lipid-rich environment and excited at ˜485 nm, or the hydrophilic dyes, calcein (excitation/emission 495 nm/515 nm) and FITC-Dextran (excitation/emission 495 nm/521 nm). […] An aliquot of ˜10 μL solution was then added to a glass cover slip for visualization using fluorescence microscopy (TIRF DM1600).

A short description of series [4]: Cell viability (CellTiter-Blue) of cells cultured with peptides / peptide nanoparticles. Format: cell-based. The following applies: mouse, murine breast cancer cells (4T1 and M6 cells); after at least about 24 hours or longer in culture; data not shown; read-out: viable cells. The protocol:
The viability of cells incubated with various concentrations of peptide constructs and/or resulting peptide nanoparticles were evaluated.
To assess effects of the peptides and/or peptide nanostructures described herein on cell viability, cells were grown to confluence in gelatin 96-well plates, following which they were either left untreated or treated with blank or one or more embodiments of the peptide nanoparticles (˜25 mg/ml) for about 18 hours. CellTiter-Blue® reagent was then added to each well and, following 4 hour incubation at ˜37° C., the fluorescence signal was measured using a fluorescence multiwell plate reader (Victor3™, PerkinElmer, Mass., USA). All fluorescent intensity measurements were then normalized with respect to the untreated 4T1 mouse mammary carcinoma cells.
A general note: Alamar Blue is a resazurin reagent that responds to reducing activity.

A short description of series [5]: Biodistribution of Alexa 750-loaded nanoparticles after tail vein injection. The following applies: mice. In kind it is in vivo. The protocol:
FIG. 11 is a line graph showing biodistribution of YF nanoparticles in mice within 2 hours after injection. An imaging dye (e.g., Alexa 750 dye) was encapsulated in the YF nanoparticles and administered to the mice by tail vein injection.
Chemical and physical properties of the resulting nanoparticles, including size, surface charge, and surface chemistry, are important factors that determine their pharmacodynamics and biodistribution, which define their efficacy to deliver an agent and toxicity. Accordingly, it was next sought to determine tissue distribution of these resulting nanoparticles. Specifically, Alexa 750 dye was encapsulated in YF nanoparticles and administered to mice by tail vein injection. At intervals of 0.5, 1.0, and 2.0 hours, the animals were euthanized, then dissected. […] These nanoparticles can potentially eliminate the need for expensive spraying approach in aerosol delivery.

Where [6] appears, read: formed in cold saline (~0.9% NaCl), solvent injection, FF ~50 mg/mL, YF ~5 mg/mL.
Setting [7] is: formed in cold saline, FF ~50 mg/mL, YF ~5 mg/mL.
Where [8] appears, read: self-assembled in cold deionized water.
Where [9] appears, read: formed in cold saline, FIG. 4E, FIG. 5.

VPGWGVPGFG [WF]: the “particle stability compared to FF and YF constructs” value in series [1] is given as “did not show a significant increase in stability”.
As for `CC(C)[C@H](N)C(=O)N1CCC[C@H]1C(=O)NCC(=O)N[C@@H](Cc1ccc(O)cc1)C(=O)NCC(=O)N[C@H](C(=O)N1CCC[C@H]1C(=O)NCC(=O)N[C@@H](Cc1ccccc1)C(=O)NCC(=O)O)C(C)C` [YF, VPGYGVPGFG] (H-VPGYGVPGFG-OH), the average hydrodynamic diameter in series [2] (setting [6]) is recorded as 600 nm; in series [2] (setting [8]), roughly 900 nm. The “polydispersity index (PDI)” value in series [2] (setting [7]) is reported as 0.07; in series [2] (setting [8]), 0.33. Besides, in series [1], the “time particles stable before disaggregation” value is listed as “about 2 hours”. In addition, the particle stability result in series [1] (setting [9]) is “at least 5 days”. Moreover, the “fraction of each dye encapsulated” value in series [3] is on record as 20-30%. Besides, in series [4], the viability was greater than 80%. The “tissue distribution: lungs” value in series [5] (0.5-2.0 hours) is recorded as “greater deposition of the nanoparticles in the lungs”. Also, the “time high fluorescence levels detected and maintained in vivo” value in series [5] (Alexa 750 encapsulated, FIG. 11) was “at least 2 hours”. The “tissue distribution: brain / blood-brain-barrier” value in series [5] (fluorescence in brain) is “cross the blood-brain-barrier and deposit in the brain”.
Turning to IPGYG, the “size distribution (monodispersity) relative to other substituted peptides” value in series [2] (DMSO stock ~380 mg/mL injected in cold saline ~2-4 °C, final ~25 mg/mL, FIG. 14) is recorded as “more monodisperse”.
`CC(C)[C@H](N)C(=O)N1CCC[C@H]1C(=O)NCC(=O)N[C@@H](Cc1ccc(O)cc1)C(=O)NCC(=O)O` [Y, VPGYG] (H-VPGYG-OH) gave a particle stability in series [1] (setting [9]) of no less than 5 days. Further, the viability in series [4] is greater than 80%.
Consider VPGFGVPGYG [FY], for which, in series [1], the “particle stability compared to FF and YF constructs” value is “did not show a significant increase in stability”.
As to VPGFGVPGFG [FF], the average hydrodynamic diameter in series [2] (setting [6]) is listed as roughly 191 nm. The “polydispersity index (PDI)” value in series [2] (setting [7]) turned out to be 0.18; in series [2] (setting [8]), 0.27. Moreover, the “time particles stable before disaggregation” value in series [1] is “about 2 hours”. The particle stability in series [1] (formed in cold saline (~0.9% NaCl), cold precipitation method) was roughly 1 days.
On to VPGFGVPGWG [FW], for which the “particle stability compared to FF and YF constructs” value in series [1] is “did not show a significant increase in stability”.
